Patent US6090987A, “Metal-ligand complex catalyzed processes” (Union Carbide Chemicals & Plastics Technology Corporation, priority 1998, dated 2000)

What was measured:
[1] = Long term catalyst stability, cycling between hydroformylation and simulated vaporizer conditions (Table 2, FIG. 2); details: for Percent Deactivation/Day: butadiene 2 psi
Description: A series of long term catalyst stability experiments were conducted in the glass reactors in a continuous propylene hydroformylation mode. The reactor consisted of a three ounce pressure bottle submersed in an oil bath with a glass front for viewing. In each example about 20 milliliters of a freshly prepared rhodium catalytic precursor solution was charged to the reactor with a syringe after purging the system with nitrogen. Each precursor solution contained 200 parts per million of rhodium (calculated as free rhodium) introduced as rhodium dicarbonyl acetylacetonate, Ligand F and tetraglyme. The amount of Ligand F (free) employed was 0.4 weight percent.
After closing the reactor, the system was again purged with nitrogen and the oil bath was heated to 80° C., in order to furnish the desired hydroformylation. The hydroformylation reaction in each experiment was conducted at a total gas pressure of about 165 psig, the target partial pressure pressures of hydrogen, carbon monoxide, and propylene being about 45 psia, 45 psia, and 5 psia, respectively, the remainder being nitrogen. The flows of the feed gases (carbon monoxide, hydrogen, propylene, and nitrogen) were controlled individually with mass flow meters. The feed gases were dispersed into the precursor solution via stainless steel 7-micron filters used as spargers. The unreacted portion of the feed gases stripped out the product aldehydes. Examples 14, 15 and 16 were conducted at 80° C. for 2 hours. The feed gases were then turned off and either pure nitrogen or an 88 mole percent nitrogen, 12 mole percent butadiene mixture was fed to the reactor (see Table 2). The pressure of the reactor was then let down to the appropriate pressure so that the target butadiene pressure in the reactor could be achieved. The oil bath temperature was then ramped to 125° C. over a 5 minute period. The bath remained at 125° C. for 10 minutes. The bath was then cooled to 80° C. over a 6 minute period. […]

[2] = Residual propylene hydroformylation activity after heat treatment, Ligand F catalyst (Table 1)
Description: A catalyst solution (100 milliliters) was generated in a six ounce Fisher Porter Bottle by dissolving 0.063 grams of rhodium dicarbonyl 2,4-pentanedionate, 0.8 grams of Ligand F, 20 grams of n-butyraldehyde, and 78.7 grams of tetraethylene glycol dimethyl ether, subsequently alternately evacuating and flushing with nitrogen; and finally adding 60 psi of CO:H2, and placing the bottles in a 100° C. oil bath for 1 hour.
(§1) After closing the reactor, the system was again purged with nitrogen and place in an oil bath heated to 100° C. The hydroformylation reaction in each experiment was conducted at a total gas pressure of 160 psig. The target partial pressure of hydrogen, carbon monoxide, and propylene being about 45 psia, 45 psia, and 5 psia respectively, with the remainder being nitrogen. The flows of the feed gases (carbon monoxide, hydrogen, propylene, and nitrogen) were controlled individually with mass flow meters. The feed gases were dispersed into the precursor solution via stainless steel 7-micron filters used as spargers. The unreacted portion of the feed gases stripped out the product aldehydes. Each experiment was operated for 24 hours under the above conditions. The activity is defined as the observed reaction rate divided by the predicted reaction rate. The reaction rates are expressed in terms of gram moles per liter per hour.
The same procedure as in Example 2 was followed with the exception that a slow stream of 1,2-propadiene was purged through the initially generated catalyst solution for 5 minutes. Excess was then removed by alternately evacuating and flushing with nitrogen. The resulting solution was heated at 125° C. as in Example 2, and 20 milliliters of the resulting solution was transferred to a glass reactor as in Example 2 and the activity determined.
(§2) The same procedure as in Example 3 was followed except 2 milliliters of 1,3-butadiene was added to the generated catalyst and stirred for 5 minutes. Excess 1,3-butadiene was then removed by alternate evacuation and flushing with nitrogen. The resulting solution was heated at 125° C. as in Example 2, and 20 milliliters of the resulting solution was transferred to a glass reactor as in Example 2 and the activity determined.
The same procedure as in Example 4 was followed with the exception that 50 milliliters of a catalyst solution generated as in Example 2 was treated with 0.5 milliliters of 2-methyl-1,3-butadiene (isoprene) in place of 1,3-butadiene.
A catalyst solution (20 milliliters) was generated in a Fisher Porter Bottle as in Example 2 under 60 psi CO:H2 for 1 hour, then cooled to room temperature and treated with 0.5 milliliters of 1,3-butadiene. The solution was removed from the Fisher Bottle by hypodermic syringe and transferred to a 100 milliliter stirred stainless vessel and maintained at 140° C. under 15 psi nitrogen for 14 hours. The resulting solution was then transferred to the glass reactors as in Example 2, and the residual catalyst activity measured. […]
The same procedure as in Example 8 was followed except allene was employed in place of 1,3-butadiene, and the resulting solution heated at 140° C. for 48 hours without removing excess allene.
A 20 milliliter sample of freshly generated catalyst solution (prepared as in Example 2) was charged to the glass reactors and the activity measured.
The same procedure as in Example 8 was followed except 0.4 grams of 1,3-cyclohexadiene was employed in place of 1,3-butadiene.

[3] = Residual propylene hydroformylation activity after heat treatment, Ligand D catalyst (Table 1); details: 125° C./50 hours, excess diene checked
Description: as §1, with “About 20 milliliters of the solution was charged to a glass reactor via a syringe after purging the reactor with nitrogen (see Examples 14-20 below). After” for “After”
as §2
The same procedure as in Example 4 was followed except Ligand D (as identified herein) was employed in place of Ligand F. The results are given in Table 1.
The same procedure as in Example 10 was followed except the fresh catalyst solution contained Ligand D in place of Ligand F. The results are given in Table 1.

[4] = 125° C./24 hours, no excess diene
[5] = 140° C./14 hours, excess diene present
[6] = 140° C./48 hours, excess diene present

## C=CC=C [Butadiene, 1,3-butadiene]
[1]; cycling between 80° C. hydroformylation and 125° C. simulated vaporizer
  influence on the catalyst (FIG. 2): stabilizing influence
[1]; separation temperature 125° C., butadiene/Rh molar ratio 45
  Percent Deactivation/Day: 5 Percent/Day
[1]; separation temperature 135° C., butadiene/Rh molar ratio 55
  Percent Deactivation/Day: 5 Percent/Day
[2]; [4]
  % Activity: 102%
  Final Rate: 2.23 gram moles per liter per hour
[2]; [5]
  % Activity: 25.2%
  Final Rate: 0.55 gram moles per liter per hour
[2]; [6]
  % Activity: 96.3%
  Final Rate: 2.10 gram moles per liter per hour
[3]
  % Activity: 116%
  Final Rate: 1.23 gram moles per liter per hour
